Test results published in ChEMBL document CHEMBL1201862, “PubChem BioAssay data set” (2004).
Active and inactive are the calls of the source.

Experiments:
[1] = target: Heat shock protein HSP 90-alpha (Homo sapiens, UniProt P07900); format: functional, organism-based
Hexokinase HKDC1 = target: T1, Hexokinase HKDC1 (Homo sapiens, UniProt Q2TB90); assay: HKDC1 hexokinase activators, dose response, biochemical, W721R variant (AID 504730); format: functional
T1 sequence (Q2TB90 whole entry): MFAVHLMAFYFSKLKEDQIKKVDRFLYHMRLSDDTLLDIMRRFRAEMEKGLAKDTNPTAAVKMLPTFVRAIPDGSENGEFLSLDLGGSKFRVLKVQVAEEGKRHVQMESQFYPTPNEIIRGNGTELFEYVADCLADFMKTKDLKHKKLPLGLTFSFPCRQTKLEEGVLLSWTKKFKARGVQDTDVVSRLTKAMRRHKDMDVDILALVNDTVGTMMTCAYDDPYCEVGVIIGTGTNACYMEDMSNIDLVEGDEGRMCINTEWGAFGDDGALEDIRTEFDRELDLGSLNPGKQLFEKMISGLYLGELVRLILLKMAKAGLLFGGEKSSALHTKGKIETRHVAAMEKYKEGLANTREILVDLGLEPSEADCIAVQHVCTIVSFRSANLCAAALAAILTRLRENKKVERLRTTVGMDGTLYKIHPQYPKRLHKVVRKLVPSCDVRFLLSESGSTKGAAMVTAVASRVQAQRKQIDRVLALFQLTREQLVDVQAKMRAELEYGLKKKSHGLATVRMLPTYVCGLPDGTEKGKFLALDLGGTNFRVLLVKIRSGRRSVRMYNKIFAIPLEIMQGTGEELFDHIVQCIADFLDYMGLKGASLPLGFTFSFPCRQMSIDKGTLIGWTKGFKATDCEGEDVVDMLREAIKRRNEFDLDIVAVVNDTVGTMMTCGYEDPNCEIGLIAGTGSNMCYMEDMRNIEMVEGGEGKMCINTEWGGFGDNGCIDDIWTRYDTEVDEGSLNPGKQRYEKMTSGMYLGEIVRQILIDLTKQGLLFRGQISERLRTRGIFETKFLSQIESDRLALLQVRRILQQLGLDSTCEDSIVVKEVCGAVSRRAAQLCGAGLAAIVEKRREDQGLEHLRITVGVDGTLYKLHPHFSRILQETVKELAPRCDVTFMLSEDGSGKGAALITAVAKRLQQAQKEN

Nonstructural protein 1 = Nonstructural protein 1 (Influenza A virus, UniProt Q194T2); format: functional, Influenza A virus (A/California/07/2009(H1N1))
Sequence of Nonstructural protein 1 (Q194T2 whole entry): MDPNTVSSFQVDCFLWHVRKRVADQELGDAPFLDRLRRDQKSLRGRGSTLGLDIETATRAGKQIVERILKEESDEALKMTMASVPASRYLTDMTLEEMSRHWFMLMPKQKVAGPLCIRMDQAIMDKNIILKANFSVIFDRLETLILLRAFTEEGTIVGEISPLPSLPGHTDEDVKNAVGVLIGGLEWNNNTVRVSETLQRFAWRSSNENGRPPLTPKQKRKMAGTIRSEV

Hexokinase-1 = Hexokinase-1 (Homo sapiens, UniProt P19367); assay: hexokinase 1 activators, dose response, selectivity assay for HKDC1 activator project, biochemical (AID 504762); format: functional
Sequence of Hexokinase-1 (P19367 whole entry): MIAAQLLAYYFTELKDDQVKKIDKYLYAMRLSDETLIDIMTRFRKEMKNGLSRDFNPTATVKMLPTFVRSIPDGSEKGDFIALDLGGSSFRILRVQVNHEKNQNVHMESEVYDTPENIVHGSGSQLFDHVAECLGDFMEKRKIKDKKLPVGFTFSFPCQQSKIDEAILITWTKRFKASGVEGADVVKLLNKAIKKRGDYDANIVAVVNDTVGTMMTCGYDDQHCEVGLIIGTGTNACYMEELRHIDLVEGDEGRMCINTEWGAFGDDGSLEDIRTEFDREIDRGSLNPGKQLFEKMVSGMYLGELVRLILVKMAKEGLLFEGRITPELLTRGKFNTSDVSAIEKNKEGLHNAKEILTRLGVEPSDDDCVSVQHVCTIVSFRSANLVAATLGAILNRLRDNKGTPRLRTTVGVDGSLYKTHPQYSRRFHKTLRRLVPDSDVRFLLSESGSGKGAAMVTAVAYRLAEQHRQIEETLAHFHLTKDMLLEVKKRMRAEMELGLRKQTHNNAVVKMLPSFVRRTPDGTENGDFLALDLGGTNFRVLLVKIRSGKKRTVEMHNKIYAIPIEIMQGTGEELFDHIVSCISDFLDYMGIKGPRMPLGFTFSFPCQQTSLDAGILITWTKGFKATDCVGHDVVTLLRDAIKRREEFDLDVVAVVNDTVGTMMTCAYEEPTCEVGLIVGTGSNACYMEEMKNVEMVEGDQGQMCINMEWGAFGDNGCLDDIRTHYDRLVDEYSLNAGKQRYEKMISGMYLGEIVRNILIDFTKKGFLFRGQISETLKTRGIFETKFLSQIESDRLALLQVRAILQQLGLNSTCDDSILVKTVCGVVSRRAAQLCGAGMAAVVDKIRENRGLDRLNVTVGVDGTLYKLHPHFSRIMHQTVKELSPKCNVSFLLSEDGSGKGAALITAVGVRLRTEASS

HEK293 = assay: inhibitors of LMP1-driven NF-kB reporter, dose response, cell-based, HEK293, luciferase, cherry-pick (AID 588343); format: functional; conditions: Homo sapiens
[2] = Vero E6 cell cytotoxicity, dose response, cytotoxicity control for non-replicating M. tuberculosis project, secondary assay (AID 492998); format: functional, VeroE6; conditions: Vero C1008
[3] = target: T2, Serine/threonine-protein phosphatase (Candida dubliniensis (strain CD36 / CBS 7987 / NCPF 3949 / NRRLY-17841) (Yeast), UniProt B9W6M3); assay: calcineurin pathway inhibitors in yeast reporter, dose response, S. cerevisiae, CDRE-lacZ, luminescence, secondary (AID 2388); format: functional, cell-based;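 also: yeast reporter cells carrying a calcineurin-responsive lacZ construct stimulated with calcium chloride; luminescent beta-galactosidase reporter signal in whole cells rather than isolated phosphatase activity; potency for inhibition where a drop in reporter signal means calcineurin blockade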
T2 sequence (B9W6M3 whole entry): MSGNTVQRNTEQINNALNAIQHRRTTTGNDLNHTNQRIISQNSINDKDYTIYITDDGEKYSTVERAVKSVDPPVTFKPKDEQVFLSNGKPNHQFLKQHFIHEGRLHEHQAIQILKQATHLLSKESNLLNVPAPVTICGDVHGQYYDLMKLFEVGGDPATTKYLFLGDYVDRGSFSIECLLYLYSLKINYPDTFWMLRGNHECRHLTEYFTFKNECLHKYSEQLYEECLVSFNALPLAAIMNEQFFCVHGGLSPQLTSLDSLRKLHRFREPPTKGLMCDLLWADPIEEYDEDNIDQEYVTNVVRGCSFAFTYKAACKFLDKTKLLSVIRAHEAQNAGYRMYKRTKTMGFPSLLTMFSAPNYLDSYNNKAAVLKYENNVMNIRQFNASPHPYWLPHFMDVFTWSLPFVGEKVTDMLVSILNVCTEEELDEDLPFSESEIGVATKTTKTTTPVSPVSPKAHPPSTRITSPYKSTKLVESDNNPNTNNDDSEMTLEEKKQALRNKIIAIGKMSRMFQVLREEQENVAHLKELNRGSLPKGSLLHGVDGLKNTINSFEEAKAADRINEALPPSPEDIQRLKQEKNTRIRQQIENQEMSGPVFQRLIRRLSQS

[4] = C. albicans growth with fluconazole, confirmation, fluorescence, retest (AID 2467); format: functional, cell-based
[5] = NIH-3T3 fibroblast cytotoxicity, dose response, cytotoxicity control, cell-based, fluorescence, Alamar Blue, secondary assay (AID 2327); format: functional;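 also: NIH-3T3 mouse fibroblasts cultured with fluconazole at 8 µg/mL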
cells [6] = format: functional, cell-based
[7] = target: ATP-dependent molecular chaperone HSP82 (Candida albicans (strain WO-1) (Yeast), UniProt C4YTQ8); assay: loss of DOC-induced GRE-beta-galactosidase reporter signal, dose response, Hsp90 inhibitor project, S. cerevisiae, luminescence (AID 2400); format: functional, cell-based;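 also: beta-galactosidase luminescence from glucocorticoid response element reporter as proxy for Hsp90 function; inhibitor potency where signal loss means Hsp90 inhibition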
Sequence of ATP-dependent molecular chaperone HSP82 (C4YTQ8 whole entry): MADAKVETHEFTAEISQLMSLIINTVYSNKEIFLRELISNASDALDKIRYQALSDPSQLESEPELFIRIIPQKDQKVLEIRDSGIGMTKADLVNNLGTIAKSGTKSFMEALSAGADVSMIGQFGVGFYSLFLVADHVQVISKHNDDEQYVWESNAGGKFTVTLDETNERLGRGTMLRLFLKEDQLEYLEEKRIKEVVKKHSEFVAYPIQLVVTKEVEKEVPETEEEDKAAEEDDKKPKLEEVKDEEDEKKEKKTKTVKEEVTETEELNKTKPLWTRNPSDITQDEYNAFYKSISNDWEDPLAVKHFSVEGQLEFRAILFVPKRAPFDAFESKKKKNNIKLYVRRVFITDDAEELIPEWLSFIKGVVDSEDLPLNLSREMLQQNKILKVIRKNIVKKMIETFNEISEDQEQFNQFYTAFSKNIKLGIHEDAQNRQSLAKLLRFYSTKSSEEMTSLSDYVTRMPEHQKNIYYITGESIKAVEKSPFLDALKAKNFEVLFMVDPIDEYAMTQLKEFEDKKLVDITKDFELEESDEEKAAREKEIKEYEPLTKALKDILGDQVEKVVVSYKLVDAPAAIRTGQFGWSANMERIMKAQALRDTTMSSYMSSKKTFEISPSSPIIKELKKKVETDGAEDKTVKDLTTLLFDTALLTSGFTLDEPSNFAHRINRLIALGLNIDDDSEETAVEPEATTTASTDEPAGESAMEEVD

cells [8] = format: functional, cell-based; remark: listed apart in the source
INS1 = assay: beta cell apoptosis inhibitors, cytokine rescue, dose response, luminescence, retest (AID 449756); format: functional, cell-based; conditions: Rattus norvegicus;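 also: cell death triggered by IL-1 beta plus TNF-alpha plus IFN-gamma mixture; protective hits raise ATP signal compared with cytokine alone wells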
[9] = THP-1 cell cytotoxicity, dose response, cytotoxicity control for non-replicating M. tuberculosis project (AID 489025); format: functional
[10] = HepG2 cell cytotoxicity, dose response, cytotoxicity control for non-replicating M. tuberculosis project (AID 489018); format: functional; conditions: Mycobacterium tuberculosis
[11] = target: Signal transducer and activator of transcription 3 (Homo sapiens, UniProt P40763); assay: STAT3 inhibitors, late-stage profile, late-stage follow-up, cell-based, STAT1 panel, qPCR, cytotoxicity, panel member STAT3 Inhibition (AID 2078)
Sequence of Signal transducer and activator of transcription 3 (P40763 whole entry): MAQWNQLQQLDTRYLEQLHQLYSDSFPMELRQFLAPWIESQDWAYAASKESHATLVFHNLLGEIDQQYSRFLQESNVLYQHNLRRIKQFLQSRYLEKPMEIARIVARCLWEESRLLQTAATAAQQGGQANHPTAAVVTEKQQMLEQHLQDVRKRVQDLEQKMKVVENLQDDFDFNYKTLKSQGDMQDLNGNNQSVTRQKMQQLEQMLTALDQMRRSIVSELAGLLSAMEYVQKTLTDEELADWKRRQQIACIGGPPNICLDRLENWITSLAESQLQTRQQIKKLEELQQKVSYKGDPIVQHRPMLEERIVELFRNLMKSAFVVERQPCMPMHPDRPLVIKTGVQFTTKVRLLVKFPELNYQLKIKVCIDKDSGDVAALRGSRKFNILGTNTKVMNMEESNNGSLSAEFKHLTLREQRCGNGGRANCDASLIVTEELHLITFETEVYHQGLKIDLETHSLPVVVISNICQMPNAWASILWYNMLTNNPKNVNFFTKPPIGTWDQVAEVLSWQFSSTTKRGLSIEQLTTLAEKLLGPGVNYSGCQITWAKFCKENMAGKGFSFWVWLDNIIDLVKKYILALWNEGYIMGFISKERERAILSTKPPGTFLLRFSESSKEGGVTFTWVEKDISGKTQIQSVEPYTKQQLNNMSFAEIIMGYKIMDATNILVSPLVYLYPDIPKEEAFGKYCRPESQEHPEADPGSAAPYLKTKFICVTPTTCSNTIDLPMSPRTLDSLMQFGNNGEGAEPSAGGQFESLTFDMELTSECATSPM

[12] = target: Signal transducer and activator of transcription 1-alpha/beta (Homo sapiens, UniProt P42224); assay: STAT3 inhibitors, late-stage profile, late-stage follow-up, cell-based, STAT1 panel, qPCR, cytotoxicity, panel member STAT1 Inhibition (AID 2078)
Sequence of Signal transducer and activator of transcription 1-alpha/beta (P42224 whole entry): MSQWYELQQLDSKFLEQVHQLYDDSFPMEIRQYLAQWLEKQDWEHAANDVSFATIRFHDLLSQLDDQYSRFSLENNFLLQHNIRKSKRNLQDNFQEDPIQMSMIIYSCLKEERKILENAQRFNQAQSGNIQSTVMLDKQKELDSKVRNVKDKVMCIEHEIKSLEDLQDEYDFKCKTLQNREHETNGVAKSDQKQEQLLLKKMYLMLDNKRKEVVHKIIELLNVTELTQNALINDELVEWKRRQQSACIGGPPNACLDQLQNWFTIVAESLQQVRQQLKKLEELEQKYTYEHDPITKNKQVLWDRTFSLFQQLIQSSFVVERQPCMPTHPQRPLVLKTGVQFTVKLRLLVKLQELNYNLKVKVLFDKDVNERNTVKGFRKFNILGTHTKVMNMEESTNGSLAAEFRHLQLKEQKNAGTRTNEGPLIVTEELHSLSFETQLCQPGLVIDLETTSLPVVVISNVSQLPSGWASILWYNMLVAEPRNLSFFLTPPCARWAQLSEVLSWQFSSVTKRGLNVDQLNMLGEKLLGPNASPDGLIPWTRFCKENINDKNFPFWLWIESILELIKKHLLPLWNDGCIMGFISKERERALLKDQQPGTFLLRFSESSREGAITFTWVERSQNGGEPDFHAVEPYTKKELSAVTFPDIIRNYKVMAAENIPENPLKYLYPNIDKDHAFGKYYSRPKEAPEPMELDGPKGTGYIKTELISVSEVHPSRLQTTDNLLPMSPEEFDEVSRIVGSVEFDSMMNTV

[13] = target: T3, Orexin/Hypocretin receptor type 1 (Homo sapiens, UniProt O43613); assay: Homogeneous Time Resolved Fluorescence (HTRF)-based cell-based high throughput dose response assay for antagonists of the orexin 1 receptor (OX1R; HCRTR1). [Related pubchem assays (depositor defined):AID434989, AID435008, AID463079, AID485270, AID492963, AID492964, AID492965, AID493232, AID504717, AID504718]; format: functional
T3 sequence (O43613 whole entry): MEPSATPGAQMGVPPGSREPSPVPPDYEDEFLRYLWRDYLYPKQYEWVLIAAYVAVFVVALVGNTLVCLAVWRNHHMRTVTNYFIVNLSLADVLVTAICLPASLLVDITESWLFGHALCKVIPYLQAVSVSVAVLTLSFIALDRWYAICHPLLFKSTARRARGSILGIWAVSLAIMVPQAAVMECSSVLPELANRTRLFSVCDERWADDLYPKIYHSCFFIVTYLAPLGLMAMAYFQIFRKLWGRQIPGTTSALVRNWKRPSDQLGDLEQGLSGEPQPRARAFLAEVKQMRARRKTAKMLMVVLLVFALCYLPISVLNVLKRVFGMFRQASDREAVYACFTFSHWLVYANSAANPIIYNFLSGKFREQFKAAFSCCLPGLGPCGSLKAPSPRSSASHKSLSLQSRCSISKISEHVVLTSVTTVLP

[14] = (§1) Counterscreen for antagonists of the orexin 1 receptor (OX1R; HCRTR1): Fluorescence-based cell-based high throughput dose response assay to identify antagonists of the parental CHO cell line. [Related pubchem assays (depositor defined):AID434989, AID435008, AID463079, AID485270, AID492963, AID492964, AID492965, AID493232, AID504699, AID504701]; format: functional
[15] = target: T3, Orexin/Hypocretin receptor type 1; assay: Fluorescence-based cell-based high throughput dose response assay for antagonists of the orexin 1 receptor (OX1R; HCRTR1). [Related pubchem assays (depositor defined):AID434989, AID435008, AID463079, AID485270, AID492963, AID492964, AID492965, AID493232, AID504717, AID504718]; format: functional
Orexin receptor type 2 [16] = target: T4, Orexin receptor type 2 (Homo sapiens, UniProt O43614); assay: Counterscreen assay for antagonists of the orexin 1 receptor (OX1R; HCRTR1): Homogeneous Time Resolved Fluorescence (HTRF)-based cell-based dose response assay for antagonists of the orexin 2 receptor (OX2R; HCRTR2), run by assay provider.; format: functional
T4 sequence (O43614 whole entry): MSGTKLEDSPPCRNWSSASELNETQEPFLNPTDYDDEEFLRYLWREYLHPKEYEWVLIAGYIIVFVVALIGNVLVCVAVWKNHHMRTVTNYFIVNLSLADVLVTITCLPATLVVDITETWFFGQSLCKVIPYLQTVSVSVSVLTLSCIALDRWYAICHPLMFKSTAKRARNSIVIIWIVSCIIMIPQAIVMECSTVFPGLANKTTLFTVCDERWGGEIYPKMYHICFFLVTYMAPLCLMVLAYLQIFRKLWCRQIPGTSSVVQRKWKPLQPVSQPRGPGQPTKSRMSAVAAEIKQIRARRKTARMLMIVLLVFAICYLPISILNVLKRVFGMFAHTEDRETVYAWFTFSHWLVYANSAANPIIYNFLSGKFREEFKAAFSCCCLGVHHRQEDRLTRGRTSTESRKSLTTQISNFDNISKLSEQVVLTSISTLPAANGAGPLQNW

CHO-K1 = assay: as §1, with “Homogeneous time resolved fluorescence (HTRF)-based” for “Fluorescence-based”, “cell-based” for “cell-based high throughput”, “CHO-K1” for “CHO”; format: functional; conditions: Cricetulus griseus;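 also: potency for inhibition of ATP-stimulated IP1 production as antagonists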
Orexin receptor type 2 [17] = target: T4, Orexin receptor type 2; assay: Counterscreen assay for antagonists of the orexin 1 receptor (OX1R; HCRTR1): Fluorescence-based cell-based dose response assay for antagonists of the orexin 2 receptor (OX2R; HCRTR2), run by assay provider.; format: functional

**Q.** Which AC50 [1] does the source give for `CC(=NNC(=S)Nc1cccc(Cl)c1)c1ccccn1` here?
**A.** The AC50 was 16.2 µM (active).

**Q.** What about the EC50 (Hexokinase HKDC1) of the same compound?
**A.** Its EC50 is 0.615 µM (active).

**Q.** And the IC50 (Nonstructural protein 1)?
**A.** Its IC50 is 15.4 µM (active).

**Q.** What about the EC50 (Hexokinase-1) of the same compound?
**A.** The EC50 was > 80 µM (inactive).

**Q.** What about the AC50 (HEK293) of the same compound?
**A.** The AC50 was 0.341 µM (active).

**Q.** What does the source list for `O=C(N/N=C/c1ccccc1O)c1cccc(C(F)(F)F)c1`?
**A.** CC50 [2]: 3.65 µM (active); EC50 [3]: > 180 µM (inactive); EC50 [4]: 1.39 µM (active); EC50 [5]: > 150 µM (inactive); EC50 (cells [6]): > 350 µM (not active); EC50 [7]: > 150 µM (inactive); EC50 (cells [8]): 7.53 µM (active); AC50 (INS1): 1.11 µM (active); CC50 [9]: 0.106 µM (active); CC50 [10]: 6.7 µM (active)

**Q.** What does the source list for `COC(=O)c1cc2c(N3CCC(Cc4ccccc4)CC3)ncnc2s1`?
**A.** IC50 [11]: > 18.6 µM (inactive); IC50 [12]: > 55.7 µM (inactive)

**Q.** Which results are given for `COc1ccc2c(c1)nc(O)c1sc3ccccc3c12`?
**A.** IC50 [13]: 2.49 µM (active); IC50 [14]: > 49.7 µM (inactive); IC50 [15]: 7.77 µM (active); IC50 (Orexin receptor type 2 [16]): > 50 µM (inactive); IC50 (CHO-K1): > 66.2 µM (inactive); IC50 (Orexin receptor type 2 [17]): 5.5 µM (active)
